Measurements published in US20260191968A1, “PROTAC DEGRADERS OF MLLT1 AND/OR MLLT3” (DARK BLUE THERAPEUTICS LTD, priority 2024, published 2026).

Columns and labels:
[1] = system: MV4-11 cells; test: MV4-11 cellular proliferative assay, Assay Format A (CellTiter-Glo, 120 hours); assay type: cell-based; conditions: Homo sapiens
Method: An MV4-11 proliferation assay was used to test the ability of compounds to reduce cell viability. MV4-11 cells (ATCC #CRL9591) were grown in IMDM medium (11510596, Gibco) supplemented with 10% fetal bovine serum (F7524, Gibco) and 1% Penicillin/Streptomycin (15140-122, Gibco) at 37° C. with 5% CO2. Cells were seeded in 384-well Elplasia plates (4447, Corning) at a density of 50 cells/well and treated with vehicle (DMSO) or compounds (10 serial semi-log dilutions, 30 μM as top concentration).
After 120 hours of treatment, cells were incubated for 10 min at RT with the CellTiter-Glo (CTG) reagent (G7571, Promega). Measurement of the luminescence signal was performed on a microplate reader (Ensight, PerkinElmer). CTG reagent measures the amount of ATP, which is directly proportional to the number of cells, to determine the number of viable cells in culture.
The data were analysed as follows:
where x is the measured raw signal value of a well, (cr) is the median of the measured signal values for the Central Reference (DMSO) wells on a plate, (sr) is the median of the measured signal values for the Scale Reference (reference compound) wells on a plate.
where the experimental set-up assumes the Hill parameters in certain ranges: S0~Central Reference (CR) from normalization (=Bottom), Sinf~Scale Reference (SR) from normalization (=Top), nHill~1, AC50~within the measured concentration range.

[2] = target: T1, MLLT1 (Homo sapiens, UniProt Q03111); test: MLLT1 degradation assay in MV4-11 cells (JESS chemiluminescent detection), three concentrations, 24 h; assay type: cell-based; conditions: with respect to DMSO control
T1 construct: host or cells: MV4-11
T1 sequence (Q03111 1-559): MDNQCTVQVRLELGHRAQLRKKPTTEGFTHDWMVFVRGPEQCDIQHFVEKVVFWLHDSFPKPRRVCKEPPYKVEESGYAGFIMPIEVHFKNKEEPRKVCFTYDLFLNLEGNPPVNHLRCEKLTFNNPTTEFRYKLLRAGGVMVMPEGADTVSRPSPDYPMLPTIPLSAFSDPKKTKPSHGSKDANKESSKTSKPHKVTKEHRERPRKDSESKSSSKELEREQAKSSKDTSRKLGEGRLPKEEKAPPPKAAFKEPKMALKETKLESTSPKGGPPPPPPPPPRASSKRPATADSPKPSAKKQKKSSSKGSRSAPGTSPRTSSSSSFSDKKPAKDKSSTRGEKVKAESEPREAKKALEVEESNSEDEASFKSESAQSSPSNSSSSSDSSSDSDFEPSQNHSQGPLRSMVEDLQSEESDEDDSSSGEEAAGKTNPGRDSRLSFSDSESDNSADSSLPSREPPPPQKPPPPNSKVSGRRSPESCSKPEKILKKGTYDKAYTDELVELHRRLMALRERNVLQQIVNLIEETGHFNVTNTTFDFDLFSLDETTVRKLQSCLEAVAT
How it was run: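 MV4-11 cells treated 24 h at 37° C, 5% CO2 with 1000, 100 and 10 nM compound (0.1% DMSO final). MLLT1 quantified by automated capillary chemiluminescent immunodetection; band peak area expressed as % degradation relative to DMSO control.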

## CN1CCC[C@@H]1c1cc2cnc(NC(=O)c3ccc(-c4ccn(CCCC#Cc5cccc6c5CN(C5CCC(=O)NC5=O)C6=O)n4)cc3)cc2[nH]1 (mixture of isomers) [Example 20, 4-(1-(5-(2-(2,6-dioxopiperidin-3-yl)-1-oxoisoindolin-4-yl)pent-4-yn-1-yl)-1H-pyrazol-3-yl)-N-(2-((R)-1-methylpyrrolidin-2-yl)-1H-pyrrolo[3,2-c]pyridin-6-yl)benzamide]
[1]
  IC50: ≤ 100 nM
[2]
  MLLT1% Degradation @ 0.01 μM: B (Category B: 50% ≤ B < 75% degradation)
  MLLT1% Degradation @ 0.1 μM: B (Category B: 50% ≤ B < 75% degradation)
  MLLT1% Degradation @ 1 μM: C (Category C: 25% ≤ C < 50% degradation)

## CN1CCC[C@@H]1c1cc2cnc(NC(=O)c3ccc(CC4CCN(c5cccc6c5C(=O)N(C5CCC(=O)NC5=O)C6=O)CC4)cc3)cc2[nH]1 (stereo partly drawn) [Example 3, 4-((1-(2-(2,6-dioxopiperidin-3-yl)-1,3-dioxoisoindolin-4-yl)piperidin-4-yl)methyl)-N-(2-((R)-1-methylpyrrolidin-2-yl)-1H-pyrrolo[3,2-c]pyridin-6-yl)benzamide]
[1]
  IC50: ≤ 100 nM
[2]
  MLLT1% Degradation @ 0.01 μM: C (Category C: 25% ≤ C < 50% degradation)
  MLLT1% Degradation @ 0.1 μM: A (Category A: A ≥ 75% degradation)
  MLLT1% Degradation @ 1 μM: A (Category A: A ≥ 75% degradation)

## CN1CCC[C@@H]1c1cc2cnc(NC(=O)c3ccc(CCC4CCN(c5cccc6c5C(=O)N(C5CCC(=O)NC5=O)C6=O)CC4)cc3)cc2[nH]1 (stereo partly drawn) [Example 4, 4-(2-(1-(2-(2,6-dioxopiperidin-3-yl)-1,3-dioxoisoindolin-4-yl)piperidin-4-yl)ethyl)-N-(2-((R)-1-methylpyrrolidin-2-yl)-1H-pyrrolo[3,2-c]pyridin-6-yl)benzamide]
[1]
  IC50: ≤ 100 nM
[2]
  MLLT1% Degradation @ 0.01 μM: B (Category B: 50% ≤ B < 75% degradation)
  MLLT1% Degradation @ 0.1 μM: A (Category A: A ≥ 75% degradation)
  MLLT1% Degradation @ 1 μM: A (Category A: A ≥ 75% degradation)

## CN1CCC[C@@H]1c1cc2cnc(NC(=O)c3ccc(OCCC#Cc4cccc5c4CN(C4CCC(=O)NC4=O)C5=O)cc3)cc2[nH]1 (stereo partly drawn) [Example 19, 4-((4-(2-(2,6-dioxopiperidin-3-yl)-1-oxoisoindolin-4-yl)but-3-yn-1-yl)oxy)-N-(2-((R)-1-methylpyrrolidin-2-yl)-1H-pyrrolo[3,2-c]pyridin-6-yl)benzamide]
[1]
  IC50: ≤ 100 nM
[2]
  MLLT1% Degradation @ 0.01 μM: B (Category B: 50% ≤ B < 75% degradation)
  MLLT1% Degradation @ 0.1 μM: A (Category A: A ≥ 75% degradation)
  MLLT1% Degradation @ 1 μM: A (Category A: A ≥ 75% degradation)

## CN1CCC[C@@H]1c1cc2cnc(NC(=O)c3ccc(-c4cnn(CCCC#Cc5cccc6c5CN(C5CCC(=O)NC5=O)C6=O)c4)cc3)cc2[nH]1 (stereo partly drawn) [Example 21, 4-(1-(5-(2-(2,6-dioxopiperidin-3-yl)-1-oxoisoindolin-4-yl)pent-4-yn-1-yl)-1H-pyrazol-4-yl)-N-(2-((R)-1-methylpyrrolidin-2-yl)-1H-pyrrolo[3,2-c]pyridin-6-yl)benzamide]
[1]
  IC50: ≤ 100 nM
[2]
  MLLT1% Degradation @ 0.01 μM: A (Category A: A ≥ 75% degradation)
  MLLT1% Degradation @ 0.1 μM: A (Category A: A ≥ 75% degradation)
  MLLT1% Degradation @ 1 μM: B (Category B: 50% ≤ B < 75% degradation)

## CN1CCC[C@@H]1c1cc2cnc(NC(=O)c3ccc(-c4cnn(CCCC#Cc5ccc6c(c5)CN(C5CCC(=O)NC5=O)C6=O)c4)cc3)cc2[nH]1 (stereo partly drawn) [Example 22, 4-(1-(5-(2-(2,6-dioxopiperidin-3-yl)-1-oxoisoindolin-5-yl)pent-4-yn-1-yl)-1H-pyrazol-4-yl)-N-(2-((R)-1-methylpyrrolidin-2-yl)-1H-pyrrolo[3,2-c]pyridin-6-yl)benzamide]
[1]
  IC50: ≤ 100 nM
[2]
  MLLT1% Degradation @ 0.01 μM: A (Category A: A ≥ 75% degradation)
  MLLT1% Degradation @ 0.1 μM: A (Category A: A ≥ 75% degradation)
  MLLT1% Degradation @ 1 μM: A (Category A: A ≥ 75% degradation)

## C[C@@H](C#Cc1cccc2c1CN(C1CCC(=O)NC1=O)C2=O)Oc1ccc(C(=O)Nc2cc3[nH]c([C@H]4CCCN4C)cc3cn2)cc1 (stereo partly drawn) [Example 24, 4-(((2S)-4-(2-(2,6-dioxopiperidin-3-yl)-1-oxoisoindolin-4-yl)but-3-yn-2-yl)oxy)-N-(2-((R)-1-methylpyrrolidin-2-yl)-1H-pyrrolo[3,2-c]pyridin-6-yl)benzamide]
[1]
  IC50: ≤ 100 nM
[2]
  MLLT1% Degradation @ 0.01 μM: A (Category A: A ≥ 75% degradation)
  MLLT1% Degradation @ 0.1 μM: A (Category A: A ≥ 75% degradation)
  MLLT1% Degradation @ 1 μM: A (Category A: A ≥ 75% degradation)

## C[C@H](C#Cc1cccc2c1CN(C1CCC(=O)NC1=O)C2=O)Oc1ccc(C(=O)Nc2cc3[nH]c([C@H]4CCCN4C)cc3cn2)cc1 (stereo partly drawn) [Example 25, 4-(((2R)-4-(2-(2,6-dioxopiperidin-3-yl)-1-oxoisoindolin-4-yl)but-3-yn-2-yl)oxy)-N-(2-((R)-1-methylpyrrolidin-2-yl)-1H-pyrrolo[3,2-c]pyridin-6-yl)benzamide]
[1]
  IC50: ≤ 100 nM
[2]
  MLLT1% Degradation @ 0.01 μM: A (Category A: A ≥ 75% degradation)
  MLLT1% Degradation @ 0.1 μM: A (Category A: A ≥ 75% degradation)
  MLLT1% Degradation @ 1 μM: A (Category A: A ≥ 75% degradation)

## CN1CCC[C@@H]1c1cc2cnc(NC(=O)CCCCCCNc3cccc4c3C(=O)N(C3CCC(=O)NC3=O)C4=O)cc2[nH]1 (stereo partly drawn) [Example 29, 7-{[2-(2,6-dioxopiperidin-3-yl)-1,3-dioxoisoindol-4-yl]amino}-N-{2-[(2R)-1-methylpyrrolidin-2-yl]-1H-pyrrolo[3,2-c]pyridin-6-yl}heptanamide]
[1]
  IC50: ≤ 100 nM
[2]
  MLLT1% Degradation @ 0.01 μM: D (Category D: D < 25% degradation)
  MLLT1% Degradation @ 0.1 μM: C (Category C: 25% ≤ C < 50% degradation)
  MLLT1% Degradation @ 1 μM: A (Category A: A ≥ 75% degradation)

## CN1CCC[C@@H]1c1[nH]c2cc(NC(=O)CCCCCCNc3cccc4c3C(=O)N(C3CCC(=O)NC3=O)C4=O)ncc2c1Cl (stereo partly drawn) [Example 33, N-{3-chloro-2-[(2R)-1-methylpyrrolidin-2-yl]-1H-pyrrolo[3,2-c]pyridin-6-yl}-7-{[2-(2,6-dioxopiperidin-3-yl)-1,3-dioxoisoindol-4-yl]amino}heptanamide]
[1]
  IC50: ≤ 100 nM
[2]
  MLLT1% Degradation @ 0.01 μM: B (Category B: 50% ≤ B < 75% degradation)
  MLLT1% Degradation @ 0.1 μM: A (Category A: A ≥ 75% degradation)
  MLLT1% Degradation @ 1 μM: A (Category A: A ≥ 75% degradation)

## CN1CCC[C@@H]1c1cc2cnc(NC(=O)c3ccc(-c4cnn(CCCC5CCN(c6cccc7c6C(=O)N(C6CCC(=O)NC6=O)C7=O)CC5)c4)cc3)cc2[nH]1 (stereo partly drawn) [Example 34, 4-[1-(3-{1-[2-(2,6-dioxopiperidin-3-yl)-1,3-dioxoisoindol-4-yl]piperidin-4-yl}propyl)pyrazol-4-yl]-N-{2-[(2R)-1-methylpyrrolidin-2-yl]-1H-pyrrolo[3,2-c]pyridin-6-yl}benzamide]
[1]
  IC50: ≤ 100 nM
[2]
  MLLT1% Degradation @ 0.1 μM: A (Category A: A ≥ 75% degradation)
  MLLT1% Degradation @ 1 μM: A (Category A: A ≥ 75% degradation)

## CN1CCC[C@@H]1c1cc2cnc(NC(=O)c3ccc(-c4cnn(CCCC5CCN(c6cccc7c6CN(C6CCC(=O)NC6=O)C7=O)CC5)c4)cc3)cc2[nH]1 (stereo partly drawn) [Example 35, 4-[1-(3-{1-[2-(2,6-dioxopiperidin-3-yl)-1-oxo-3H-isoindol-4-yl]piperidin-4-yl}propyl)pyrazol-4-yl]-N-{2-[(2R)-1-methylpyrrolidin-2-yl]-1H-pyrrolo[3,2-c]pyridin-6-yl}benzamide]
[1]
  IC50: ≤ 100 nM
[2]
  MLLT1% Degradation @ 0.01 μM: A (Category A: A ≥ 75% degradation)
  MLLT1% Degradation @ 0.1 μM: A (Category A: A ≥ 75% degradation)
  MLLT1% Degradation @ 1 μM: A (Category A: A ≥ 75% degradation)

## CN1CCC[C@@H]1c1cc2cnc(NC(=O)c3ccc(CCCNc4cccc5c4C(=O)N(C4CCC(=O)NC4=O)C5=O)cc3)cc2[nH]1 (stereo partly drawn) [Example 36, 4-(3-{[2-(2,6-dioxopiperidin-3-yl)-1,3-dioxoisoindol-4-yl]amino}propyl)-N-{2-[(2R)-1-methylpyrrolidin-2-yl]-1H-pyrrolo[3,2-c]pyridin-6-yl}benzamide]
[1]
  IC50: ≤ 100 nM
[2]
  MLLT1% Degradation @ 0.01 μM: A (Category A: A ≥ 75% degradation)
  MLLT1% Degradation @ 0.1 μM: A (Category A: A ≥ 75% degradation)
  MLLT1% Degradation @ 1 μM: A (Category A: A ≥ 75% degradation)
